Values of other authors, collected in patent US10493079B2, “Stable carfilzomib formulations” (Cipla Limited, priority 2016, dated 2019).

aqueous solubility: extremely low
Compound: CC(C)C[C@H](NC(=O)[C@H](CCc1ccccc1)NC(=O)CN1CCOCC1)C(=O)N[C@@H](Cc1ccccc1)C(=O)N[C@@H](CC(C)C)C(=O)[C@@]1(C)CO1 [carfilzomib]
